Experimental data from BindingDB's records for patent US11723908 (Suzhou Zanrong Pharma, 2023).

Target: Receptor tyrosine-protein kinase erbB-2 (Homo sapiens, UniProt P04626)
Assay: BT474 Cellular Assay (HER2 Inhibition)
Method: Inhibition of phosphor HER2 was determined by enzyme-linked immunosorbent assay (ELISA) in BT474 cells. BT474 cell line was purchased from ATCC (catalog number HTB-20). Human Phospho-ErbB2 ELISA kit was purchased from R&D systems (catalog number DYC1768).

Sequence of Receptor tyrosine-protein kinase erbB-2 (P04626 whole entry): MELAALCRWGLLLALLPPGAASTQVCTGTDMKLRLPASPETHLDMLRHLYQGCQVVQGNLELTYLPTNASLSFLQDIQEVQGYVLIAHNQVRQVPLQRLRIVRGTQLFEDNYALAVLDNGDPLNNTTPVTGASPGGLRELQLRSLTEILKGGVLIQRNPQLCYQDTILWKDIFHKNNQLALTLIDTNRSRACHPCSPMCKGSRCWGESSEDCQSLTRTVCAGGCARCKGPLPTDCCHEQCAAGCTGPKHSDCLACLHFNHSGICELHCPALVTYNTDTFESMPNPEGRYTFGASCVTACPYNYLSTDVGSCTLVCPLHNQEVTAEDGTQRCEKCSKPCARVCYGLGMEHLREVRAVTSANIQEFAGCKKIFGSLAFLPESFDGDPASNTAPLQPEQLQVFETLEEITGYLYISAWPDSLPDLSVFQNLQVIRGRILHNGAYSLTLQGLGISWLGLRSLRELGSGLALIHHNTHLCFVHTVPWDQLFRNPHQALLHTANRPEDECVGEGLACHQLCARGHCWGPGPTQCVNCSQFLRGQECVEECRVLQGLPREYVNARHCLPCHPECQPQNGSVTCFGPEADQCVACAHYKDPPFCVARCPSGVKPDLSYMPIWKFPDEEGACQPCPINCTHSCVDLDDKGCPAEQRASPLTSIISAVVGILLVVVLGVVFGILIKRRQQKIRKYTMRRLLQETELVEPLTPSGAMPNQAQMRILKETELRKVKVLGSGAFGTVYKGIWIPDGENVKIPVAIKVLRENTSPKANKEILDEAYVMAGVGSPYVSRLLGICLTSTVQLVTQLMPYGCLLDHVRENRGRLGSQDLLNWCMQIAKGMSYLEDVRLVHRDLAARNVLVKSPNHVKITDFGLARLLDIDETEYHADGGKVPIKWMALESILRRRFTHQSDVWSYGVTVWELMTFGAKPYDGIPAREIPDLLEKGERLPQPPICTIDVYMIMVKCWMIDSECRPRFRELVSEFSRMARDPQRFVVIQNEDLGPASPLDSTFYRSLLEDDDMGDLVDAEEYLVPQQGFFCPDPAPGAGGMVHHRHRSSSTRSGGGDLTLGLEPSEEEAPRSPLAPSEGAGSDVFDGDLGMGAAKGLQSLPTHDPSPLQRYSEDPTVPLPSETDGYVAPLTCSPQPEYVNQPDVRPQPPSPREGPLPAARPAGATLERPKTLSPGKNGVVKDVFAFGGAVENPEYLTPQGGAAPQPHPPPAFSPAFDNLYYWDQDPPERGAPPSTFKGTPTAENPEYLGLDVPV

IC50: 145 nM
Structure (SMILES): Cc1cc(Nc2ncnc3ccc(OC(F)(F)F)c(O[C@H]4CCN(C)CC4(F)F)c23)ccc1Oc1cc2ncnn2cn1 [US11723908, Example 73]
